# Assay results as given in patent US20240393292A1, “ALLERGY ANTIGEN AND EPITOPE THEREOF” (HOYU CO., LTD., priority 2019, published 2024).
# System: IgE antibodies from patients
# Assay: Wheat epitope mapping (2): overlapping 10-amino-acid peptide fragments shifted by one amino acid;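 note: key = sequence deemed particularly important within the common 15-residue sequence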
# Assay type: binding, human
# Settings: serum of patient G6 (adult, general immediate type allergy to wheat); sequence without X
# In short: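 Cellulose-bound 10-mer peptides offset by one residue were probed with patient serum IgE and detected by chemiluminescence. Secondary-antibody-only signals were subtracted per peptide. Residual binding was expressed as % of the parent overlapping peptide, scored as none (<30%), poor (30–<50%), somewhat poor (50–<70%) or retained (≥70%).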
row,Substance,Rank of partial sequence as epitope binding to IgE antibody
1,1494 (YLQPQQPISQ; REGION 1..10: note = epitope) [compound 1494],Preferably
2,1495 (YLQPQQPI; REGION 1..8: note = epitope) [compound 1495],Key

# Same assay, conditions: serum of patient G7 (adult, general immediate type allergy to wheat); sequence without X
row,Substance,Rank of partial sequence as epitope binding to IgE antibody
1,1499 (YLQPQQPISQ; REGION 1..10: note = epitope) [compound 1499],More preferably
2,1500 (YLQPQQPIS; REGION 1..9: note = epitope) [compound 1500],Preferably
3,1502 (LQPQQP; REGION 1..6: note = epitope) [compound 1502],Key
4,1503 (QPISQQQA; REGION 1..8: note = epitope) [compound 1503],Preferably
5,1505 (SQQQA; REGION 1..5: note = epitope) [compound 1505],Key
6,1562 (QVPLVQQQQF; REGION 1..10: note = epitope) [compound 1562],More preferably
7,1563 (QVPLVQQQQ; REGION 1..9: note = epitope) [compound 1563],Preferably
8,1565 (QQQQFLGQ; REGION 1..8: note = epitope) [compound 1565],Key

# Same assay, conditions: serum of patient G9 (adult, general immediate type allergy to wheat); sequence without X
row,Substance,Rank of partial sequence as epitope binding to IgE antibody
1,1506 (YLQPQQP; REGION 1..7: note = epitope) [compound 1506],Preferably
2,1507 (YLQPQ; REGION 1..5: note = epitope) [compound 1507],Key

# Same assay, conditions: serum of patient P3 (WDEIA); sequence without X
row,Substance,Rank of partial sequence as epitope binding to IgE antibody
1,1509 (QVPLVQQ; REGION 1..7: note = epitope) [compound 1509],Preferably
2,1567 (PFPQTQQ; REGION 1..7: note = epitope) [compound 1567],Preferably
3,1568 (PFPQTQ; REGION 1..6: note = epitope) [compound 1568],Key
4,1601 (AQLEAIRSL; REGION 1..9: note = epitope) [compound 1601],Preferably

# Same assay, conditions: serum of patient P4 (WDEIA); sequence without X
row,Substance,Rank of partial sequence as epitope binding to IgE antibody
1,1514 (QVPLVQQQQ; REGION 1..9: note = epitope) [compound 1514],Preferably

# Same assay, conditions: serum of patient P7 (WDEIA); sequence without X
row,Substance,Rank of partial sequence as epitope binding to IgE antibody
1,1518 (QVPLVQQ; REGION 1..7: note = epitope) [compound 1518],Preferably

# Same assay, conditions: serum of patient P8 (WDEIA); sequence without X
row,Substance,Rank of partial sequence as epitope binding to IgE antibody
1,1520 (QVPLVQQ; REGION 1..7: note = epitope) [compound 1520],Preferably
2,1611 (YNPD; REGION 1..4: note = epitope) [compound 1611],Key

# Same assay, conditions: serum of patient P10 (WDEIA); sequence without X
row,Substance,Rank of partial sequence as epitope binding to IgE antibody
1,1523 (QVPLVQQQQF; REGION 1..10: note = epitope) [compound 1523],Further preferably
2,1524 (QVPLVQQQQ; REGION 1..9: note = epitope) [compound 1524],More preferably
3,1525 (LVQQQQFLG; REGION 1..9: note = epitope) [compound 1525],Preferably
4,1526 (VQQQ; REGION 1..4: note = epitope) [compound 1526],Key
5,1605 (AQLEAIRS; REGION 1..8: note = epitope) [compound 1605],More preferably

# Same assay, conditions: serum of patient P12 (WDEIA); sequence without X
row,Substance,Rank of partial sequence as epitope binding to IgE antibody
1,1527 (QVPLVQQQQ; REGION 1..9: note = epitope) [compound 1527],More preferably
2,1528 (QVPLVQQ; REGION 1..7: note = epitope) [compound 1528],Preferably

# Same assay, conditions: serum of patient P14 (WDEIA); sequence without X
row,Substance,Rank of partial sequence as epitope binding to IgE antibody
1,1532 (QVPLVQQQ; REGION 1..8: note = epitope) [compound 1532],Preferably
2,1534 (QQQQFLG; REGION 1..7: note = epitope) [compound 1534],Preferably

# Same assay, conditions: serum of patient P15 (WDEIA); sequence without X
row,Substance,Rank of partial sequence as epitope binding to IgE antibody
1,1613 (YNPD; REGION 1..4: note = epitope) [compound 1613],Key

# Same assay, conditions: serum of patient P16 (WDEIA); sequence without X
row,Substance,Rank of partial sequence as epitope binding to IgE antibody
1,1573 (PQQPQQPFP; REGION 1..9: note = epitope) [compound 1573],Preferably
2,1575 (QQPQQ; REGION 1..5: note = epitope) [compound 1575],Preferably
3,1577 (PFPQTQQ; REGION 1..7: note = epitope) [compound 1577],More preferably
4,1614 (YNPD; REGION 1..4: note = epitope) [compound 1614],Key

# Same assay, conditions: serum of patient P17 (WDEIA); sequence without X
row,Substance,Rank of partial sequence as epitope binding to IgE antibody
1,1538 (LVQQQQFLGQ; REGION 1..10: note = epitope) [compound 1538],Further preferably
2,1539 (LVQQQQFLG; REGION 1..9: note = epitope) [compound 1539],More preferably
3,1540 (VQQQQFLG; REGION 1..8: note = epitope) [compound 1540],Preferably
4,1615 (YNPD; REGION 1..4: note = epitope) [compound 1615],Key
5,1616 (FVPISG; REGION 1..6: note = epitope) [compound 1616],Key

# Same assay, conditions: serum of patient P20 (WDEIA); sequence without X
row,Substance,Rank of partial sequence as epitope binding to IgE antibody
1,1580 (QPFPQTQQPQ; REGION 1..10: note = epitope) [compound 1580],Further preferably
2,1581 (PFPQTQQPQ; REGION 1..9: note = epitope) [compound 1581],More preferably
3,1582 (FPQTQQPQ; REGION 1..8: note = epitope) [compound 1582],Preferably
4,1617 (VPFVPISG; REGION 1..8: note = epitope) [compound 1617],Preferably

# Same assay, conditions: serum of patient P21 (WDEIA); sequence without X
row,Substance,Rank of partial sequence as epitope binding to IgE antibody
1,1542 (QVPLVQQQQ; REGION 1..9: note = epitope) [compound 1542],More preferably
2,1543 (QVPLVQQ; REGION 1..7: note = epitope) [compound 1543],Preferably
3,1586 (QQPFPQTQQP; REGION 1..10: note = epitope) [compound 1586],More preferably

# Same assay, conditions: serum of patient P34 (WDEIA); sequence without X
row,Substance,Rank of partial sequence as epitope binding to IgE antibody
1,1547 (QVPLVQQQQ; REGION 1..9: note = epitope) [compound 1547],More preferably
2,1548 (QVPLVQQQ; REGION 1..8: note = epitope) [compound 1548],Preferably
3,1550 (LVQQQQFLGQ; REGION 1..10: note = epitope) [compound 1550],More preferably
4,1551 (QQQQFLGQ; REGION 1..8: note = epitope) [compound 1551],Preferably

# Same assay, conditions: serum of patient P35 (WDEIA); sequence without X
row,Substance,Rank of partial sequence as epitope binding to IgE antibody
1,1487 (YLQPQQPISQ; REGION 1..10: note = epitope) [compound 1487],Preferably
2,1488 (YLQPQQPIS; REGION 1..9: note = epitope) [compound 1488],Key
3,1489 (QQPISQQQAQ; REGION 1..10: note = epitope) [compound 1489],Preferably
4,1555 (QVPLVQQQ; REGION 1..8: note = epitope) [compound 1555],Preferably
5,1556 (LVQQQ; REGION 1..5: note = epitope) [compound 1556],Key

# Same assay, conditions: serum of patient P36 (WDEIA); sequence without X
row,Substance,Rank of partial sequence as epitope binding to IgE antibody
1,1492 (YLQPQQPISQ; REGION 1..10: note = epitope) [compound 1492],Preferably
2,1493 (YLQPQQPIS; REGION 1..9: note = epitope) [compound 1493],Key

# Same assay, conditions: serum of patient P50 (child, general immediate type allergy to wheat); sequence without X
row,Substance,Rank of partial sequence as epitope binding to IgE antibody
1,1557 (QVPLVQQQQF; REGION 1..10: note = epitope) [compound 1557],More preferably
2,1558 (PLVQQQQF; REGION 1..8: note = epitope) [compound 1558],Preferably
3,1560 (QQQFLGQQ; REGION 1..8: note = epitope) [compound 1560],Key
4,1590 (QPFPQTQQPQ; REGION 1..10: note = epitope) [compound 1590],Preferably
5,1591 (QPFPQTQQP; REGION 1..9: note = epitope) [compound 1591],Key

# Same assay, conditions: serum of patient P52 (child, general immediate type allergy to wheat); sequence without X
row,Substance,Rank of partial sequence as epitope binding to IgE antibody
1,1594 (QPQQPFP; REGION 1..7: note = epitope) [compound 1594],Further preferably
2,1595 (QPQQPF; REGION 1..6: note = epitope) [compound 1595],More preferably
